Measured values reported in patent US12187773B2, “Modified GIP peptide analogues” (Antag Therapeutics ApS, priority 2018, dated 2025).
pIC50: −log10 of the molar value. Read-outs that look alike come from different tables or passages of the source. *1 amine or outer side, *2 acyl side, *3 side chain or, on linkers, in order; H or OH if unused. Where a SMILES comes first, the peptide text is derived from it. Side-chain parts run from the residue outwards. [ ]: non-standard residue; d: D form. The star is where a group is joined. C16 diacid = O=C(O)CCCCCCCCCCCCCCC(=O)*; γGlu = O=C(O)[C@H](CCC(=O)[*:2])N[*:1]; pGlu = O=C1CC[C@@H](C(=O)O)N1; AEEA = NCCOCCOCC(=O)O

Experiments:
human GIP receptor [1] = target: T1, human GIP receptor (Homo sapiens, UniProt P48546); experiment: cAMP agonism (CisBio cAMP Dynamic 2 HTRF assay); assay type: cell-based; settings: HEK293, read-out: cAMP agonism, % Efficacy, Table 1C, HEK-293 cells
T1 sequence (P48546 22-466): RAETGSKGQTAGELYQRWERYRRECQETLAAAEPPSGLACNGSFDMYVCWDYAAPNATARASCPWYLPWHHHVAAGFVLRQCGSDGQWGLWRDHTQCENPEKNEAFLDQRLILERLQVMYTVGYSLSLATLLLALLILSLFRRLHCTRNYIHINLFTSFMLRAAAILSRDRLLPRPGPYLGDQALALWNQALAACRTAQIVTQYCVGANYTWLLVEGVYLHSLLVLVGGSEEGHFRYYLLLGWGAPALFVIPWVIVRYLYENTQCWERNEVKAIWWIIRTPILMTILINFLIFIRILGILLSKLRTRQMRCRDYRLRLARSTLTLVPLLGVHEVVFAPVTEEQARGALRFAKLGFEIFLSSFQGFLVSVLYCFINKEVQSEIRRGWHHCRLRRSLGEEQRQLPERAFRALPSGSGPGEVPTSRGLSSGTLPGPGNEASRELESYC
Method: To test for agonistic properties at the GIP receptor, compounds were diluted and added to cells as described above and incubated for 30 min at 37° C. The resulting increase in intracellular cAMP was determined using the CisBio cAMP Dynamic 2 HTRF Assay Kit as described above.

[2] = Elimination half-life (T1/2) estimated in Göttingen minipigs; assay type: in vivo
Method: 2-3 Göttingen minipigs were subcutaneously administered one of the GIP analogues of the present invention (1-10 nmol/kg, total volume 2-6 mL) and blood samples were collected before and up to 432 hours post subcutaneous administration.) from a central venous catheter. The catheter was flushed with saline and heparin between samples. Blood was collected into cold EDTA tubes, centrifuged and plasma was kept at −20° C. pending analyses.
Concentrations of the acylated GIP(3-30)NH2 or GIP(5-30)NH2 analogues in blood samples from Göttingen minipigs were analyzed by RIA. Analogues' immunoreactivity was determined using antiserum Ab95234, Ab95235, Ab95236, a polyclonal in-house antibody raised in rabbits specific for either the mid region of GIP(1-30)NH2 or amidated C-terminus of GIP(3-30)NH2.
In addition to the hormone analysis, blood concentrations of AT374, 380, 382-385, 392-393 were determined by LC/MS performed by Red Glead Discovery AB, Lund, Sweden. The plasma samples were precipitated by addition of 3 parts ethanol followed by thorough mixing. After centrifugation and dilution of the supernatant, the samples were analyzed by LC-MS/MS and compared with a 9-point calibration curve. The calibration curves were prepared in naïve plasma matrix from Göttingen minipigs.

human GIP receptor [3] = target: T1, human GIP receptor; experiment: cAMP antagonism (CisBio cAMP Dynamic 2 HTRF assay); assay type: cell-based; parameters: pCMV-Script vector; settings: Table 1C, CisBio, HEK-293 cells; for IC50: cAMP antagonism, nM (IC50), agonist GIP1-42 at EC50
Procedure, shortened: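 Four-parameter fits of cAMP dose-response gave pIC50. cAMP fall was quantified by HTRF competition, ratio 665/620 nm after 60 min at room temperature, against a cAMP standard curve.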

human GIP receptor [4] = target: T1, human GIP receptor; experiment: cAMP accumulation, antagonism (DiscoveRx HitHunter cAMP XS assay); assay type: cell-based; parameters: host or cells: COS-7 (transient, calcium phosphate; pCMV-Script vector); settings: for cAMP antagonism, % inhib / IC50: Table 1B, DiscoveRx; for cAMP antagonism, % inhib: COS-7 cells, % inhibition of Emax; for IC50: cAMP antagonism, nM (IC50), transiently transfected COS-7 cells
Procedure, shortened: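 Transiently transfected COS-7 cells expressing human GIP receptor, pretreated with 1 mM IBMX in HBS 30 min at 37 °C. Agonism: ligand 30 min at 37 °C; antagonism: 10 min antagonist preincubation, then GIP at 50-80% maximal response for 20 min. cAMP measured by HitHunter cAMP XS.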

human GIP receptor [5] = target: T1, human GIP receptor; experiment: cAMP accumulation, agonism (DiscoveRx HitHunter cAMP XS assay); assay type: cell-based; parameters: host or cells: COS-7 (transient, calcium phosphate; pCMV-Script vector); settings: for cAMP agonism, Emax: Table 1B, DiscoveRx, COS-7 cells
Procedure, shortened: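 cAMP accumulation measured by HitHunter cAMP XS in COS-7 cells transiently expressing human GIP receptor, after 30 min in HBS with 1 mM IBMX at 37 °C. Antagonists preincubated 10 min before GIP giving 50-80% of maximum, then 20 min more; agonist mode used 30 min ligand exposure.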

[6] = sc, Table 1B, species not given, unit h, LC/MS in Göttingen minipig plasma for these IDs, subcutaneous 1-10 nmol/kg, read-out: T½ (converted)

Row | Structure (SMILES) | Emax (human GIP receptor [1]) [%] | half-life [2, 6] [h] | cAMP antagonism, % inhib (human GIP receptor [3]) [%] | IC50 (human GIP receptor [3]) [nM] | pIC50 (human GIP receptor [4]; IC50-value (GIPR antagonism), Examples 1 and 2, values of Tables 1B and 2) | cAMP antagonism, % inhib (human GIP receptor [4]) [%] | cAMP agonism, Emax (human GIP receptor [5]) | half-life ([2]; Göttingen, minipig, plasma, subcutaneous, Example 1, read-out: T1/2 (converted)) [h] | IC50 (human GIP receptor [4]) [nM] | Emax (human GIP receptor [5]; COS-7, read-out: cAMP agonism, Emax) [%]
1 | CC[C@H](C)[C@H](NC(=O)[C@H](CO)NC(=O)[C@H](Cc1ccc(O)cc1)NC(=O)[C@H](CC(=O)O)NC(=O)[C@H](CO)NC(=O)[C@@H](NC(=O)[C@H](Cc1ccccc1)NC(=O)[C@@H](NC(=O)CNC(=O)[C@@H](N)CCC(=O)O)[C@@H](C)O)[C@@H](C)CC)C(=O)N[C@@H](C)C(=O)N[C@@H](CCSC)C(=O)N[C@@H](CC(=O)O)C(=O)N[C@@H](CCCNC(=N)N)C(=O)N[C@H](C(=O)N[C@@H](CCCCNC(=O)COCCOCCNC(=O)COCCOCCNC(=O)CC[C@H](NC(=O)CCCCCCCCCCCCCCC(=O)O)C(=O)O)C(=O)N[C@@H](CCC(N)=O)C(=O)N[C@@H](CCC(N)=O)C(=O)N[C@@H](CC(=O)O)C(=O)N[C@@H](Cc1ccccc1)C(=O)N[C@H](C(=O)N[C@@H](CC(N)=O)C(=O)N[C@@H](Cc1c[nH]c2ccccc12)C(=O)N[C@@H](CC(C)C)C(=O)N[C@@H](CC(C)C)C(=O)N[C@@H](C)C(=O)N[C@@H](CCC(N)=O)C(=O)N[C@@H](CCCNC(=N)N)C(N)=O)C(C)C)[C@@H](C)CC [AT374] (H-EGTFISDYSIAMDRIK([AEEA-AEEA-γGlu-C16 diacid])QQDFVNWLLAQR-NH2; N-terminus assumed) | 0 | 14 | 86 | 17.1 | 7.92 | 100 | No Agonism | – | – | –
2 | CC[C@H](C)[C@H](NC(=O)[C@H](CO)NC(=O)[C@H](Cc1ccc(O)cc1)NC(=O)[C@H](CC(=O)O)NC(=O)[C@H](CO)NC(=O)[C@@H](NC(=O)[C@H](Cc1ccccc1)NC(=O)[C@@H](NC(=O)CNC(=O)[C@@H]1CCC(=O)N1)[C@@H](C)O)[C@@H](C)CC)C(=O)N[C@@H](C)C(=O)N[C@@H](CCSC)C(=O)N[C@@H](CC(=O)O)C(=O)N[C@@H](CCCNC(=N)N)C(=O)N[C@H](C(=O)N[C@@H](CCCCNC(=O)COCCOCCNC(=O)COCCOCCNC(=O)COCCOCCNC(=O)CC[C@H](NC(=O)CCCCCCCCCCCCCCC(=O)O)C(=O)O)C(=O)N[C@@H](CCC(N)=O)C(=O)N[C@@H](CCC(N)=O)C(=O)N[C@@H](CC(=O)O)C(=O)N[C@@H](Cc1ccccc1)C(=O)N[C@H](C(=O)N[C@@H](CC(N)=O)C(=O)N[C@@H](Cc1c[nH]c2ccccc12)C(=O)N[C@@H](CC(C)C)C(=O)N[C@@H](CC(C)C)C(=O)N[C@@H](C)C(=O)N[C@@H](CCC(N)=O)C(=O)N[C@@H](CCCNC(=N)N)C(N)=O)C(C)C)[C@@H](C)CC [AT380] ([pGlu]GTFISDYSIAMDRIK([AEEA-AEEA-AEEA-γGlu-C16 diacid])QQDFVNWLLAQR-NH2) | 8 | 20 | 82 | 85.8 | – | 100 | No Agonism | 20 | 7 | –
3 | CC[C@H](C)[C@H](NC(=O)[C@H](CO)NC(=O)[C@H](Cc1ccc(O)cc1)NC(=O)[C@H](CC(=O)O)NC(=O)[C@H](CO)NC(=O)[C@@H](NC(=O)[C@H](Cc1ccccc1)NC(=O)[C@@H](NC(=O)CNC(=O)CN)[C@@H](C)O)[C@@H](C)CC)C(=O)N[C@@H](C)C(=O)N[C@@H](CCSC)C(=O)N[C@@H](CC(=O)O)C(=O)N[C@@H](CCCNC(=N)N)C(=O)N[C@H](C(=O)N[C@@H](CCCCNC(=O)COCCOCCNC(=O)COCCOCCNC(=O)CC[C@H](NC(=O)CCCCCCCCCCCCCCC(=O)O)C(=O)O)C(=O)N[C@@H](CCC(N)=O)C(=O)N[C@@H](CCC(N)=O)C(=O)N[C@@H](CC(=O)O)C(=O)N[C@@H](Cc1ccccc1)C(=O)N[C@H](C(=O)N[C@@H](CC(N)=O)C(=O)N[C@@H](Cc1c[nH]c2ccccc12)C(=O)N[C@@H](CC(C)C)C(=O)N[C@@H](CC(C)C)C(=O)N[C@@H](C)C(=O)N[C@@H](CCC(N)=O)C(=O)N[C@@H](CCCNC(=N)N)C(N)=O)C(C)C)[C@@H](C)CC [AT514] (H-GGTFISDYSIAMDRIK([AEEA-AEEA-γGlu-C16 diacid])QQDFVNWLLAQR-NH2; N-terminus assumed) | 0 | – | 86 | 31.6 | – | 80 | No Agonism | – | – | –
4 | CC[C@H](C)[C@H](NC(=O)[C@H](CO)NC(=O)[C@H](Cc1ccc(O)cc1)NC(=O)[C@H](CC(=O)O)NC(=O)[C@H](CO)NC(=O)[C@@H](NC(=O)[C@H](Cc1ccccc1)NC(=O)[C@@H](NC(=O)CNC(=O)[C@@H](N)CO)[C@@H](C)O)[C@@H](C)CC)C(=O)N[C@@H](C)C(=O)N[C@@H](CCSC)C(=O)N[C@@H](CC(=O)O)C(=O)N[C@@H](CCCNC(=N)N)C(=O)N[C@H](C(=O)N[C@@H](CCCCNC(=O)COCCOCCNC(=O)COCCOCCNC(=O)CC[C@H](NC(=O)CCCCCCCCCCCCCCC(=O)O)C(=O)O)C(=O)N[C@@H](CCC(N)=O)C(=O)N[C@@H](CCC(N)=O)C(=O)N[C@@H](CC(=O)O)C(=O)N[C@@H](Cc1ccccc1)C(=O)N[C@H](C(=O)N[C@@H](CC(N)=O)C(=O)N[C@@H](Cc1c[nH]c2ccccc12)C(=O)N[C@@H](CC(C)C)C(=O)N[C@@H](CC(C)C)C(=O)N[C@@H](C)C(=O)N[C@@H](CCC(N)=O)C(=O)N[C@@H](CCCNC(=N)N)C(N)=O)C(C)C)[C@@H](C)CC [AT516] (H-SGTFISDYSIAMDRIK([AEEA-AEEA-γGlu-C16 diacid])QQDFVNWLLAQR-NH2; N-terminus assumed) | 0 | – | 88 | – | – | 100 | No Agonism | – | 31 | –
5 | CC[C@H](C)[C@H](NC(=O)[C@H](CO)NC(=O)[C@H](Cc1ccc(O)cc1)NC(=O)[C@H](CC(=O)O)NC(=O)[C@H](CO)NC(=O)[C@@H](NC(=O)[C@H](Cc1ccccc1)NC(=O)[C@@H](NC(=O)CNC(=O)[C@@H]1CCCN1)[C@@H](C)O)[C@@H](C)CC)C(=O)N[C@@H](C)C(=O)N[C@@H](CCSC)C(=O)N[C@@H](CC(=O)O)C(=O)N[C@@H](CCCNC(=N)N)C(=O)N[C@H](C(=O)N[C@@H](CCCCNC(=O)COCCOCCNC(=O)COCCOCCNC(=O)CC[C@H](NC(=O)CCCCCCCCCCCCCCC(=O)O)C(=O)O)C(=O)N[C@@H](CCC(N)=O)C(=O)N[C@@H](CCC(N)=O)C(=O)N[C@@H](CC(=O)O)C(=O)N[C@@H](Cc1ccccc1)C(=O)N[C@H](C(=O)N[C@@H](CC(N)=O)C(=O)N[C@@H](Cc1c[nH]c2ccccc12)C(=O)N[C@@H](CC(C)C)C(=O)N[C@@H](CC(C)C)C(=O)N[C@@H](C)C(=O)N[C@@H](CCC(N)=O)C(=O)N[C@@H](CCCNC(=N)N)C(N)=O)C(C)C)[C@@H](C)CC [AT518] (H-PGTFISDYSIAMDRIK([AEEA-AEEA-γGlu-C16 diacid])QQDFVNWLLAQR-NH2; N-terminus assumed) | 0 | – | 71 | 85.8 | – | 100 | – | – | – | 5
